Values after ≈ are worked out from the molar mass of the structure shown. Active and inactive are the calls of the source. The rule behind the calls is not given here.
Assays:
A498 [1] = experiment: Anticancer activity against human A498 cells assessed as cell growth at 80 ug/mL by sulforhodamine B assay; assay type: functional; details: read-out: Activity
[2] = test system: Mycobacterium tuberculosis; experiment: Antitubercular activity against Mycobacterium tuberculosis H37Rv after 3 weeks by turbidity assay; assay type: functional; details: 504 h
A549 [3] = experiment: Anticancer activity against human A549 cells assessed as cell growth at 10 ug/mL by sulforhodamine B assay; assay type: functional; details: read-out: Activity
A549 [4] = experiment: Anticancer activity against human A549 cells assessed as cell growth at 80 ug/mL by sulforhodamine B assay; assay type: functional; details: read-out: Activity
A549 [5] = experiment: Cytotoxicity against human A549 cells; assay type: functional
[6] = Antioxidant activity assessed as potassium ferric cyanide reducing power at 100 ug after 20 mins by spectrophotometry; assay type: functional
A498 [7] = experiment: Anticancer activity against human A498 cells assessed as cell growth at 40 ug/mL by sulforhodamine B assay; assay type: functional; details: read-out: Activity
[8] = Antioxidant activity assessed as potassium ferric cyanide reducing power at 10 ug after 20 mins by spectrophotometry; assay type: functional
Nucleic Acid = experiment: Induction of Escherichia coli DNA cleavage at 100 ug after 2 hrs by agarose gel electrophoresis; assay type: nucleic-acid assay
A549 [9] = experiment: Anticancer activity against human A549 cells assessed as cell growth at 20 ug/mL by sulforhodamine B assay; assay type: functional; details: read-out: Activity
A498 [10] = experiment: Anticancer activity against human A498 cells assessed as cell growth at 10 ug/mL by sulforhodamine B assay; assay type: functional; details: read-out: Activity
[11] = Antioxidant activity assessed as potassium ferric cyanide reducing power at 50 ug after 20 mins by spectrophotometry; assay type: functional
A498 [12] = experiment: Anticancer activity against human A498 cells assessed as cell growth at 20 ug/mL by sulforhodamine B assay; assay type: functional; details: read-out: Activity
A549 [13] = experiment: Anticancer activity against human A549 cells assessed as cell growth at 40 ug/mL by sulforhodamine B assay; assay type: functional; details: read-out: Activity
A498 [14] = experiment: Cytotoxicity against human A498 cells; assay type: functional

SMILES: C(=C\C1CC(c2ccc3[nH]c4c(c3c2)CCCC4)=NN1)/c1ccccc1 (stereo not drawn)
- growth at 80 µg/mL (A498 [1]): 6%
- MIC [2]: 25 µg/mL (≈ 73.2 µM)
- growth at 10 µg/mL (A549 [3]): 98.8%
- growth at 80 µg/mL (A549 [4]): 48.7%
- GI50 (A549 [5]): 54 µg/mL (≈ 158 µM)
- LC50 (A549 [5]): > 80 µg/mL
- TGI (A549 [5]): > 80 µg/mL
- reducing power [6]: 0.67 absorbance
- growth at 40 µg/mL (A498 [7]): 95.7%
- reducing power [8]: 0.19 absorbance
- Activity (Nucleic Acid): inactive
- growth at 20 µg/mL (A549 [9]): 94.8%
- growth at 10 µg/mL (A498 [10]): 99.5%
- reducing power [11]: 0.47 absorbance
- growth at 20 µg/mL (A498 [12]): 99.7%
- growth at 40 µg/mL (A549 [13]): 88.4%
- GI50 (A498 [14]): 57 µg/mL (≈ 167 µM)
- LC50 (A498 [14]): > 80 µg/mL
- TGI (A498 [14]): > 80 µg/mL

SMILES: Oc1ccc(C2CC(c3ccc4[nH]c5c(c4c3)CCCC5)=NN2)cc1 (stereo not drawn)
- growth at 80 µg/mL (A498 [1]): 3.9%
- MIC [2]: 3.5 µg/mL (≈ 10.6 µM)
- growth at 10 µg/mL (A549 [3]): 83.2%
- growth at 80 µg/mL (A549 [4]): 11.5%
- GI50 (A549 [5]): 76.5 µg/mL (≈ 231 µM)
- LC50 (A549 [5]): > 70 µg/mL
- TGI (A549 [5]): > 70 µg/mL
- reducing power [6]: 0.25 absorbance
- growth at 40 µg/mL (A498 [7]): 83%
- reducing power [8]: 0.125 absorbance
- Activity (Nucleic Acid): inactive
- growth at 20 µg/mL (A549 [9]): 74.6%
- growth at 10 µg/mL (A498 [10]): 83%
- reducing power [11]: 0.14 absorbance
- growth at 20 µg/mL (A498 [12]): 86%
- growth at 40 µg/mL (A549 [13]): 67.1%
- GI50 (A498 [14]): 74.5 µg/mL (≈ 225 µM)
- LC50 (A498 [14]): > 70 µg/mL
- TGI (A498 [14]): > 70 µg/mL

SMILES: O=[N+]([O-])c1ccc(C2CC(c3ccc4[nH]c5c(c4c3)CCCC5)=NN2)cc1 (stereo not drawn)
- growth at 80 µg/mL (A498 [1]): 4.1%
- MIC [2]: 10 µg/mL (≈ 27.7 µM)
- growth at 10 µg/mL (A549 [3]): 70.1%
- growth at 80 µg/mL (A549 [4]): 4.2%
- GI50 (A549 [5]): 38.2 µg/mL (≈ 106 µM)
- LC50 (A549 [5]): > 80 µg/mL
- TGI (A549 [5]): > 80 µg/mL
- reducing power [6]: 0.675 absorbance
- growth at 40 µg/mL (A498 [7]): 97.7%
- reducing power [8]: 0.195 absorbance
- Activity (Nucleic Acid): Active
- growth at 20 µg/mL (A549 [9]): 64.4%
- growth at 10 µg/mL (A498 [10]): 100%
- reducing power [11]: 0.475 absorbance
- growth at 20 µg/mL (A498 [12]): 100%
- growth at 40 µg/mL (A549 [13]): 50.4%
- GI50 (A498 [14]): 56.2 µg/mL (≈ 156 µM)
- LC50 (A498 [14]): > 80 µg/mL
- TGI (A498 [14]): > 80 µg/mL

SMILES: COc1ccc(C2CC(c3ccc4[nH]c5c(c4c3)CCCC5)=NN2)cc1 (stereo not drawn)
- growth at 80 µg/mL (A498 [1]): 4.2%
- MIC [2]: 10 µg/mL (≈ 28.9 µM)
- growth at 10 µg/mL (A549 [3]): 81.6%
- growth at 80 µg/mL (A549 [4]): 15.3%
- GI50 (A549 [5]): 56.2 µg/mL (≈ 163 µM)
- LC50 (A549 [5]): > 80 µg/mL
- TGI (A549 [5]): > 80 µg/mL
- reducing power [6]: 0.673 absorbance
- growth at 40 µg/mL (A498 [7]): 97.7%
- reducing power [8]: 0.193 absorbance
- Activity (Nucleic Acid): inactive
- growth at 20 µg/mL (A549 [9]): 76.2%
- growth at 10 µg/mL (A498 [10]): 98.3%
- reducing power [11]: 0.473 absorbance
- growth at 20 µg/mL (A498 [12]): 100%
- growth at 40 µg/mL (A549 [13]): 69.4%
- GI50 (A498 [14]): 55 µg/mL (≈ 159 µM)
- LC50 (A498 [14]): > 80 µg/mL
- TGI (A498 [14]): > 80 µg/mL

SMILES: CC1CC(c2ccc3[nH]c4c(c3c2)CCCC4)=NN1 (stereo not drawn)
- growth at 80 µg/mL (A498 [1]): 4%
- MIC [2]: 3.5 µg/mL (≈ 13.8 µM)
- growth at 10 µg/mL (A549 [3]): 90.2%
- growth at 80 µg/mL (A549 [4]): 12.1%
- GI50 (A549 [5]): 52.5 µg/mL (≈ 207 µM)
- LC50 (A549 [5]): > 70 µg/mL
- TGI (A549 [5]): > 70 µg/mL
- reducing power [6]: 0.13 absorbance
- growth at 40 µg/mL (A498 [7]): 85%
- reducing power [8]: 0.02 absorbance
- Activity (Nucleic Acid): inactive
- growth at 20 µg/mL (A549 [9]): 81.6%
- growth at 10 µg/mL (A498 [10]): 80%
- reducing power [11]: 0.105 absorbance
- growth at 20 µg/mL (A498 [12]): 82%
- growth at 40 µg/mL (A549 [13]): 75.7%
- GI50 (A498 [14]): 55.2 µg/mL (≈ 218 µM)
- LC50 (A498 [14]): > 70 µg/mL
- TGI (A498 [14]): > 70 µg/mL

SMILES: Oc1ccccc1C1CC(c2ccc3[nH]c4c(c3c2)CCCC4)=NN1 (stereo not drawn)
- growth at 80 µg/mL (A498 [1]): 16.5%
- MIC [2]: 4.5 µg/mL (≈ 13.6 µM)
- growth at 10 µg/mL (A549 [3]): 11.9%
- growth at 80 µg/mL (A549 [4]): -28.4%
- GI50 (A549 [5]): 75.7 µg/mL (≈ 228 µM)
- LC50 (A549 [5]): > 70 µg/mL
- TGI (A549 [5]): > 70 µg/mL
- reducing power [6]: 0.246 absorbance
- growth at 40 µg/mL (A498 [7]): 97.7%
- reducing power [8]: 0.118 absorbance
- Activity (Nucleic Acid): inactive
- growth at 20 µg/mL (A549 [9]): -2.9%
- growth at 10 µg/mL (A498 [10]): 99.3%
- reducing power [11]: 0.137 absorbance
- growth at 20 µg/mL (A498 [12]): 99.5%
- growth at 40 µg/mL (A549 [13]): -18.5%
- GI50 (A498 [14]): 62.3 µg/mL (≈ 188 µM)
- LC50 (A498 [14]): > 80 µg/mL
- TGI (A498 [14]): > 80 µg/mL

SMILES: c1ccc(C2CC(c3ccc4[nH]c5c(c4c3)CCCC5)=NN2)cc1 (stereo not drawn)
- growth at 80 µg/mL (A498 [1]): 3.9%
- MIC [2]: 12 µg/mL (≈ 38 µM)
- growth at 10 µg/mL (A549 [3]): 98.8%
- growth at 80 µg/mL (A549 [4]): 48.7%
- GI50 (A549 [5]): > 80 µg/mL
- LC50 (A549 [5]): > 80 µg/mL
- TGI (A549 [5]): > 80 µg/mL
- reducing power [6]: 0.126 absorbance
- growth at 40 µg/mL (A498 [7]): 95.9%
- reducing power [8]: 0.01 absorbance
- Activity (Nucleic Acid): inactive
- growth at 20 µg/mL (A549 [9]): 94.8%
- growth at 10 µg/mL (A498 [10]): 100%
- reducing power [11]: 0.102 absorbance
- growth at 20 µg/mL (A498 [12]): 99.1%
- growth at 40 µg/mL (A549 [13]): 88.4%
- GI50 (A498 [14]): 55.6 µg/mL (≈ 176 µM)
- LC50 (A498 [14]): > 80 µg/mL
- TGI (A498 [14]): > 80 µg/mL
